Data reported in US8618149B2, “Inhibition of biofilms in plants with imidazole derivatives” (North Carolina State University, priority 2007, dated 2013).
Counter-ions that a name gives are not always drawn.

Columns and labels:
[1] = test system: Xanthomonas strain Xcv 135; assay: Biofilm inhibition, crystal violet biofilm attachment assay on PVC microtiter wells; assay type: cell-based; details: biofilm formation, starting OD600 0.55, 28° C., 6 hours, static
Description: Activity Testing. A standard crystal violet reporter assay is employed to assess the effect of compounds on the formation of biofilms. Among others, the following strains are tested:
Bacteria are allowed to form biofilms in a multi-well plate in the absence or presence of one or more compounds. Planktonic (or free growing) bacteria are then removed, wells washed vigorously, and crystal violet added. Crystal violet stains the remaining bacteria which, following ethanol solubilization, is quantitated by spectrophotometry (A540). Time-dependent and concentration-dependent analysis of each compound are performed.
Activity testing of imidazole library members on Xanthomonas. Biofilm formation on PVC microtiter wells was accomplished using Xanthomonas strains Xcv 135 (known to infect peppers and tomatoes) and Xcv 5 (known to infect tomatoes but not peppers) as models. The Starting Optical Density (OD at 600 nm) for biofilm attachment assay was 0.55, the temperature for this assay was 28° C., the duration of incubation was 6 hours under, and the assay was static.
Biofilm inhibition results are as follows for screens with Xcv 135. The Xcv 5 strain is tested in the same manner.

[2] = test system: marine α-proteobacterium R. salexigens; details: documented in literature (Yamada et al. 1997); cited from earlier work
calcium channels = details: known from literature (Bickmeyer, Toxicon 2005); cited from earlier work

| Structure (SMILES) | % Inhibition at 20 μM (vs. Xcv 135) [1] [%] | anti-biofouling properties: biofilm development in R. salexigens [2] | activity of calcium channels (calcium channels) |
| --- | --- | --- | --- |
| NC[C@@H]1Cc2nc(N)[nH]c2C[C@H]1CN (racemic) [Formula (II)(a)(±)] | 0 | – | – |
| Nc1nc2c([nH]1)C[C@@H](CNC(=O)c1cc(Br)c[nH]1)[C@H](CNC(=O)c1cc(Br)c[nH]1)C2 (racemic) [Formula (II)(b)(v)(trans)(±)] | 0 | – | – |
| Nc1nc2c([nH]1)C[C@@H](CNC(=O)c1cc(Br)c(Br)[nH]1)[C@H](CNC(=O)c1cc(Br)c(Br)[nH]1)C2 (racemic) [Formula (II)(b)(vi)(trans)(±)] | 71 | – | – |
| Nc1nc([C@@H]2c3[nH]c(N)nc3C[C@H](CNC(=O)c3cc(Br)c[nH]3)[C@H]2CNC(=O)c2cc(Br)c(Br)[nH]2)c[nH]1 [bromoageliferin] | – | inhibiting biofilm development | modulate the activity of calcium channels |
| Nc1ncc(/C=C/CNC(=O)c2cc(Br)c(Br)[nH]2)[nH]1 [oroidin, oroidin hydrochloride] | – | inhibiting biofilm development | – |
